Here are results for 20 molecules from patent US9260408B2, “Dihydroquinoline-2-one derivatives” (Hoffmann-La Roche Inc., priority 2011, dated 2016).

Structures are written as SMILES. Counter-ions that a name gives are not always drawn.

In general, EC50 refers to the concentration that produces a half-maximal response.

The target of one experiment is T1, human CYP11B2 (Homo sapiens, UniProt P19099).
T1 construct: expressed in transfected cells
T1 sequence (P19099 25-503): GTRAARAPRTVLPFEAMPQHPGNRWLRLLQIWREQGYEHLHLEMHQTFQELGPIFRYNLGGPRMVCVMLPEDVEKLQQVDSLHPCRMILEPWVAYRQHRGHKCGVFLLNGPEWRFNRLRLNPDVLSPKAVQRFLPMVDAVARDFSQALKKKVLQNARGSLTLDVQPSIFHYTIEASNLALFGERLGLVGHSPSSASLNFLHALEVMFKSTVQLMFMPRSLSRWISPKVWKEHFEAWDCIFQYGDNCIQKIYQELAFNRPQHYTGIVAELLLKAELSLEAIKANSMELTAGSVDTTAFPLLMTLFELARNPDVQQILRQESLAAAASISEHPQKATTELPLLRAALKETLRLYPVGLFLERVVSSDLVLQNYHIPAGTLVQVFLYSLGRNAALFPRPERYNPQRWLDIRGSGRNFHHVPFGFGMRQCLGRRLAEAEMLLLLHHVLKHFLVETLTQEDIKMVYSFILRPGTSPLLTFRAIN
Briefly: G-402 cellular enzyme assay, human CYP11B2 (aldosterone release, HTRF). It is filed as cell-based. The conditions noted are these: G-402 cells expressing human CYP11B2; 1 μM Deoxycorticosterone. An excerpt: (§1) Herein we identified the use of the G-402 cell line as a host cell to ectopically express (transiently or stably) enzymes of the CYP11 family. Specifically we developed stable G-402 cells expressing ectopically human CYP11B1, human CYP11B2, human CYP11A1, cynomolgus CYP11B1 or cynomolgus CYP11B2 enzyme activity. Importantly the identified cell line G-402 expresses co-factors (adrenodoxin and adrenodoxin reductase) important for the activity of the CYP11 family and no relevant enzyme activity of the CYP11 family (in comparison to H295R cells) was detected in these cells. Therefore the G-402 cell line is uniquely suited as a host cell for the ectopic expression of enzymes from the CYP11 family.
(§2) G-402 cells can be obtained from ATCC(CRL-1440) and were originally derived from a renal leiomyoblastoma.
(§3) The expression plasmids contains the ORF for either human/cyno CYP11B1 or CYP11B2 under the control of a suitable promoter (CMV-promoter) and a suitable resistance marker (neomycin). Using standard techniques the expression plasmid is transfected into G-402 cells and these cells are then selected for expressing the given resistance markers. Individual cell-clones are then selected and assessed for displaying the desired enzymatic activity using 11-Deoxycorticosterone (Cyp11B2) or 11-Deoxycortisol (Cyp11B1) as a substrate.
(§4) G-402 cells expressing CYP11 constructs were established as described above and maintained in McCoy's 5a Medium Modified, ATCC Catalog No. 30-2007 containing 10% FCS and 400 μg/ml G418 (Geneticin) at 37° C. under an atmosphere of 5% CO2/95% air. Cellular enzyme assays were performed in DMEM/F12 medium containing 2.5% charcoal treated FCS and appropriate concentration of substrate (0.3-10 uM 11-Deoxycorticosterone, 11-Deoxycortisol or Corticosterone). For assaying enzymatic activity, cells were plated onto 96 well plates and incubated for 16 h. An aliquot of the supernatant is then transferred and analyzed for the concentration of the expected product (Aldosterone for CYP11B2; Cortisol for CYP11B1). The concentrations of these steroids can be determined using HTRF assays from CisBio analyzing either Aldosterone or Cortisol.
(§5) Inhibition of the release of produced steroids can be used as a measure of the respective enzyme inhibition by test compounds added during the cellular enzyme assay. The dose dependent inhibition of enzymatic activity by a compound is calculated by means of plotting added inhibitor concentrations (x-axes) vs. measured steroid/product level (y-axes). The inhibition is then calculated by fitting the following 4-parameter sigmoidal function (Morgan-Mercer-Flodin (MMF) model) to the raw data points using the least squares method:
(§6) [formula] wherein, A is the maximum y value, B is the EC50 factor determined using XLFit, C is the minimum y value and D is the slope value.
(§7) EC50 values for compounds claimed herein were tested with the G402-based assay system described. Cyp11B2 enzyme activity was tested in presence of 1 μM Deoxycorticosterone and variable amounts of inhibitors; Cyp11B1 enzyme activity was tested in presence of 1 μM Deoxycortisol and variable amounts of inhibitors.
(In TR-FRET formats the signal depends on donor and acceptor labels being close together.)

The target in a further experiment is T2, human CYP11B1 (Homo sapiens, UniProt P15538).
T2 construct: expressed in transfected cells
T2 sequence (P15538 25-503): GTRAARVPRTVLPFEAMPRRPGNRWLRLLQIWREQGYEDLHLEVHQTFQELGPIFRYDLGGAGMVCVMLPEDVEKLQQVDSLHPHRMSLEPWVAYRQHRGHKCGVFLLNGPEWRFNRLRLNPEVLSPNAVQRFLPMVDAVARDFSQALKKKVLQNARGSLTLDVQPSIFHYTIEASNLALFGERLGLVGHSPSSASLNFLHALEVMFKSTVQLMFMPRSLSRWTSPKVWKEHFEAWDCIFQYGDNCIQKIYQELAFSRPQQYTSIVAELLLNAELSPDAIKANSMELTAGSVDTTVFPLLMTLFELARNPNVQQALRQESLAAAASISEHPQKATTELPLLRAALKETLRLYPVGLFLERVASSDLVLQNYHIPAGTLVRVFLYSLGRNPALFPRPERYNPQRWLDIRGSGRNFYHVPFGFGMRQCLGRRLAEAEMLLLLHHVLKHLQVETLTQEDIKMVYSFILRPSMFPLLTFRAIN
Kind of experiment: G-402 cellular enzyme assay, human CYP11B1 (cortisol release, HTRF). The class given is cell-based. The note with it: G-402 cells expressing human CYP11B1; 1 μM Deoxycortisol.
Description: as §1, §2, §3, §4, §5, §6, §7

Molecule `CCS(=O)(=O)NC(c1cncc(-c2ccc3c(c2)CCC(=O)N3C)c1)C(C)C` (racemic) [Example 176, (rac)-Ethanesulfonic acid {2-methyl-1-[5-(1-methyl-2-oxo-1,2,3,4-tetrahydro-quinolin-6-yl)-pyridin-3-yl]-propyl}-amide] returned an EC50 at human CYP11B2 of 128 nM.

On to `CCS(=O)(=O)NC(c1cncc(-c2ccc3c(c2)CCC(=O)N3C)c1)C1CC1` (racemic) [Example 177, (rac)-Ethanesulfonic acid {cyclopropyl-[5-(1-methyl-2-oxo-1,2,3,4-tetrahydro-quinolin-6-yl)-pyridin-3-yl]-methyl}-amide], for which the concentration giving a half-maximal response (EC50) was 117 nM on human CYP11B2 and 8460 nM on human CYP11B1.

Take `CCS(=O)(=O)NC(C)c1cncc(-c2cc3c(cc2F)N(C)C(=O)CC3)c1` (racemic) [Example 178, (rac)-Ethanesulfonic acid {1-[5-(7-fluoro-1-methyl-2-oxo-1,2,3,4-tetrahydro-quinolin-6-yl)-pyridin-3-yl]-ethyl}-amide]: the concentration for a half-maximal effect (EC50) is 10 nM at human CYP11B2 and 535 nM on human CYP11B1.

On to `CCC(NS(=O)(=O)CC)c1cncc(-c2ccc3c(c2)CCC(=O)N3C)c1` (racemic) [Example 180, (rac)-Ethanesulfonic acid {1-[5-(1-methyl-2-oxo-1,2,3,4-tetrahydro-quinolin-6-yl)-pyridin-3-yl]-propyl}-amide], for which the half-maximal effective concentration (EC50) at human CYP11B2 turned out to be 33 nM; at human CYP11B1, 1890 nM.

As for `CCS(=O)(=O)N(C)C(C)c1cncc(-c2ccc3c(c2)CCC(=O)N3C)c1` (racemic) [Example 186, (rac)-Ethanesulfonic acid methyl-{1-[5-(1-methyl-2-oxo-1,2,3,4-tetrahydro-quinolin-6-yl)-pyridin-3-yl]-ethyl}-amide], the 50% effective concentration (EC50) at human CYP11B2 was 11 nM; at human CYP11B1 it was 199 nM.

As for `CCN(C(C)c1cncc(-c2ccc3c(c2)CCC(=O)N3C)c1)S(=O)(=O)CC` (racemic) [Example 187, (rac)-Ethanesulfonic acid ethyl-{1-[5-(1-methyl-2-oxo-1,2,3,4-tetrahydro-quinolin-6-yl)-pyridin-3-yl]-ethyl}-amide], the results for the EC50 at human CYP11B2 and at human CYP11B1 were 27 nM and 705 nM, respectively.

With `CCC(=O)NC(C)c1cncc(-c2cc3c(cc2F)N(C)C(=O)CC3)c1` (racemic) [Example 213, (rac)-N-{1-[5-(7-Fluoro-1-methyl-2-oxo-1,2,3,4-tetrahydro-quinolin-6-yl)-pyridin-3-yl]-ethyl}-propionamide], the concentration giving a half-maximal response (EC50) at human CYP11B2 came to 41 nM; on human CYP11B1 it was 834 nM.

Consider `CC(N[S@+]([O-])C(C)(C)C)c1cncc(-c2ccc3c(c2)CCC(=O)N3C)c1` (single isomer, unassigned) [Example 56, (R)-2-Methyl-propane-2-sulfinic acid {(S or R)-1-[5-(1-methyl-2-oxo-1,2,3,4-tetrahydro-quinolin-6-yl)-pyridin-3-yl]-ethyl}-amide], for which the half-maximal effective concentration (EC50) on human CYP11B2 was 40 nM; on human CYP11B1, 587 nM.

Regarding `CC(N[S@+]([O-])C(C)(C)C)c1cncc(-c2ccc3c(c2)CCC(=O)N3C)c1` (single isomer, unassigned) [Example 57, (R)-2-Methyl-propane-2-sulfinic acid {(R or S)-1-[5-(1-methyl-2-oxo-1,2,3,4-tetrahydro-quinolin-6-yl)-pyridin-3-yl]-ethyl}-amide], the EC50 at human CYP11B2 is 26 nM; at human CYP11B1, 393 nM.

`CC(N)c1cncc(-c2ccc3c(c2)CCC(=O)N3C)c1` (single isomer, unassigned) [Example 64, 6-[5-((S or R)-1-Amino-ethyl)-pyridin-3-yl]-1-methyl-3,4-dihydro-1H-quinolin-2-one hydrochloride]: the 50% effective concentration (EC50) amounted to 423 nM on human CYP11B2 and 12300 nM at human CYP11B1.

As to `CC(N)c1cncc(-c2ccc3c(c2)CCC(=O)N3C)c1` (single isomer, unassigned) [Example 65, 6-[5-((R or S)-1-amino-ethyl)-pyridin-3-yl]-1-methyl-3,4-dihydro-1H-quinolin-2-one hydrochloride], the concentration giving a half-maximal response (EC50) is 315 nM on human CYP11B2 and 13100 nM on human CYP11B1.

Consider `Cc1noc(C)c1C(=O)NC(C)c1cncc(-c2ccc3c(c2)CCC(=O)N3C)c1` (single isomer, unassigned) [Example 135], for which the values for the 50% effective concentration (EC50) on human CYP11B2 and at human CYP11B1 were 6 nM and 163 nM, respectively.

For the molecule `CN1C(=O)CCc2cc(-c3cncc(C4(N[S@+]([O-])C(C)(C)C)COC4)c3)ccc21` [Example 54, (R)-2-Methyl-propane-2-sulfinic acid {3-[5-(1-methyl-2-oxo-1,2,3,4-tetrahydro-quinolin-6-yl)-pyridin-3-yl]-oxetan-3-yl}-amide], the EC50 on human CYP11B1 worked out at 3850 nM.

For the molecule `CN1C(=O)CCc2cc(-c3cncc(O[C@H]4CCNC4)c3)ccc21` [Example 60, 1-methyl-6-[5-((S)-pyrrolidin-3-yloxy)-pyridin-3-yl]-3,4-dihydro-1H-quinolin-2-one hydrochloride], the EC50 at human CYP11B2 is 685 nM.

The molecule `CN1C(=O)CCc2cc(-c3cncc(OC[C@@H]4CCCN4)c3)ccc21` [Example 66, 1-Methyl-6-[5-((S)-1-pyrrolidin-2-ylmethoxy)-pyridin-3-yl]-3,4-dihydro-1H-quinolin-2-one hydrochloride] returned a 50% effective concentration (EC50) on human CYP11B2 of 710 nM.

For `COc1cc(C(=O)N2CC3(C2)CN(c2cncc(-c4ccc5c(c4)CCC(=O)N5C)n2)C3)on1` [Example 74, 6-{6-[6-(3-Methoxy-isoxazole-5-carbonyl)-2,6-diaza-spiro[3.3]hept-2-yl]-pyrazin-2-yl}-1-methyl-3,4-dihydro-1H-quinolin-2-one], on human CYP11B2, a half-maximal effect (EC50) was put at 286 nM.

Take `Cc1cc(Cl)cnc1C(=O)NCc1cncc(-c2ccc3c(c2)CCC(=O)N3C)c1` [Example 120]: the half-maximal effective concentration (EC50) at human CYP11B1 amounted to 8 nM.

On human CYP11B1, `CCS(=O)(=O)N(C)CCOc1cncc(-c2cc3c(cc2F)N(C)C(=O)CC3)c1` [Example 248, Ethanesulfonic acid {2-[5-(7-fluoro-1-methyl-2-oxo-1,2,3,4-tetrahydro-quinolin-6-yl)-pyridin-3-yloxy]-ethyl}-methyl-amide] yielded an EC50 of 7 nM.

At human CYP11B1, `CN1C(=O)CCc2cc(-c3cncc(C4CCN(C(=O)OC(C)(C)C)CC4)c3)ccc21` [Example 260, 5-(1-Methyl-2-oxo-1,2,3,4-tetrahydro-quinolin-6-yl)-3′,4′,5′,6′-tetrahydro-2′H-[3,4′]bipyridinyl-1′-carboxylic acid tert-butyl ester] had a concentration for a half-maximal effect (EC50) of 1 nM.

On human CYP11B2, `CCS(=O)(=O)NCc1cncc(-c2cc(F)c3c(ccc(=O)n3C)c2)c1` [Example 263, Ethanesulfonic acid [5-(8-fluoro-1-methyl-2-oxo-1,2-dihydro-quinolin-6-yl)-pyridin-3-ylmethyl]-amide] came in with a half-maximal effective concentration (EC50) of 3100 nM.
